Assay in all cases: NCI anticancer screen, dose series, 48 h
Experiment [1] deals with SNB-75 CNS.
In experiment [2] the test system is OVCAR-4 ovarian.
Experiment [3] has as its system CCRF-CEM leukemia.
For experiment [4], the system named is SN12C renal.
Experiment [5] concerns COLO 205 colon.
Experiment [6] relates to OVCAR-3 ovarian.
The subject of experiment [7] is HT29 colon.
Experiment [8] relates to HCT-15 colon.
The subject of experiment [9] is SF-539 CNS.
Experiment [10] concerns SK-OV-3 ovarian.
In experiment [11] the test system is T-47D breast.
In experiment [12] the test system is M14 melanoma.
Experiment [13] has as its system UO-31 renal.
Experiment [14] has as its system SR leukemia.
In experiment [15] the test system is HCC-2998 colon.
The test system of experiment [16] is KM12 colon.
The subject of experiment [17] is OVCAR-5 ovarian.
The test system of experiment [18] is 786-0 renal.

Structures are written as SMILES.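 Protocol summary: plate cells (96-well), add compound at 5 concentrations, incubate 48 h, interpolate endpoints linearly. At the TGI there is no net growth.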

As for `CC(C)(C)c1cc2c(OC/C=C/c3ccccc3)c(c1)Cc1cc(C(C#N)(OC/C=C/c3ccccc3)OC/C=C/c3ccccc3)cc(c1OC/C=C\c1ccccc1)Cc1cc(C(C)(C)C)cc(c1OC/C=C/c1ccccc1)Cc1cc(C(C#N)(OC/C=C\c3ccccc3)OC/C=C/c3ccccc3)cc(c1OC/C=C\c1ccccc1)C2` (centres undefined), the TGI in [1], in experiment [2], in experiment [3], in experiment [4], in [5] and in experiment [6] was over 100 µM throughout. In addition, the TGI in [7], in [8], in experiment [9], in experiment [10], in experiment [11] and in experiment [12] was over 100 µM in each case. Also, the TGI is over 100 µM in experiment [13]; 49.3 µM in [14]; over 100 µM in experiment [15]; over 100 µM in [16]; over 100 µM in experiment [17]; over 100 µM in [18].
`O=S1(=O)OCCOS(=O)(=O)C1(F)Br`: the TGI in [1], in experiment [2], in experiment [3], in [4], in experiment [5] and in experiment [6] was over 100 µM in each case. Moreover, the TGI in experiment [7], in [8], in experiment [9], in [10], in experiment [11] and in experiment [12] was over 100 µM each time. In addition, the TGI in experiment [13], in experiment [14], in experiment [15], in experiment [16], in [17] and in experiment [18] was over 100 µM in each case.
As for `O=[N+]([O-])c1nccn1CCCNc1ccnc2cc(Cl)ccc12`, the TGI in experiment [1] is over 100 µM; in experiment [2], over 100 µM; in experiment [3] it was over 100 µM; in [4], over 85.1 µM; in [5], over 100 µM; in experiment [6], over 100 µM. Further, the TGI in experiment [7] was 99.6 µM; in experiment [8], over 100 µM; in experiment [9] it was over 88.7 µM; in experiment [10], over 100 µM; in experiment [11] it was over 89.9 µM; in [12] it was over 100 µM. The TGI was over 88.4 µM in [13]; over 75.3 µM in experiment [14]; 55.3 µM in experiment [15]; over 26.6 µM in experiment [16]; over 100 µM in [17]; over 100 µM in experiment [18].
For the compound `O=C(CCCN1CCC2(CC1)CC(c1ccccc1)OC2=O)c1ccc(F)cc1` (centres undefined), the TGI in [1] is 54.2 µM; in experiment [2], over 100 µM; in experiment [3], over 100 µM; in experiment [4], over 100 µM; in [5] it was 35.4 µM; in experiment [6] it was over 100 µM. In addition, the TGI is 35.2 µM in experiment [7]; over 100 µM in [8]; 53.1 µM in experiment [9]; over 100 µM in experiment [10]; 69.1 µM in experiment [11]; 30.9 µM in experiment [12]. In addition, the TGI in experiment [13] is over 100 µM; in experiment [14] it was 40.1 µM; in experiment [15] it was 73.2 µM; in [16], 97.1 µM; in [17], over 100 µM; in [18], 67.5 µM.
As to `CC1=NN(C(=O)c2ccncc2)C(=O)C1`, the TGI in experiment [1], in experiment [2], in [3], in experiment [4], in experiment [5] and in experiment [6] was over 100 µM each time. Also, the TGI in [7], in experiment [8], in experiment [9], in [10], in [11] and in [12] was over 100 µM in each case. Moreover, the TGI in [13], in experiment [14], in experiment [15], in experiment [16], in [17] and in [18] was over 100 µM throughout.
Consider `CCN(CC)CC1CCCCN1CC(=O)N1c2ccccc2C(=O)Nc2cccnc21` (centres undefined), for which the TGI in experiment [1] is over 100 µM; in [2], over 100 µM; in experiment [3] it was 38.5 µM; in experiment [4], over 100 µM; in experiment [5], 64.6 µM; in experiment [6], over 100 µM. Besides, the TGI in [7], in experiment [8], in experiment [9], in experiment [10], in [11] and in experiment [12] was over 100 µM throughout. In addition, the TGI is 4.96 µM in experiment [13]; 58.1 µM in experiment [14]; over 100 µM in experiment [15]; over 100 µM in [16]; over 100 µM in experiment [17]; over 100 µM in [18].
Consider `Cc1cc(C)c(-n2[nH]c(=O)n(C)c2=O)c(C)c1`, for which the TGI in [1], in experiment [2], in experiment [3], in [4], in [5] and in experiment [6] was over 100 µM each time. For the same compound, the TGI in [7], in experiment [8], in [9], in [10], in experiment [11] and in [12] was over 100 µM throughout. Further, the TGI in [13], in experiment [14], in [15], in experiment [16], in experiment [17] and in [18] was over 100 µM in each case.
For `COC1=CC(=O)C2=C(C1=O)[C@H]1CC[C@]3(C)[C@@H](O)CC[C@H]3[C@@H]1CC2`, the TGI in experiment [1] is 36.5 µM; in experiment [2], 30.9 µM; in experiment [3] it was 86.2 µM; in experiment [4], 30.6 µM; in experiment [5], 22.5 µM; in [6], 32.3 µM. For the same compound, the TGI in [7] was 19 µM; in [8], 31.9 µM; in [9], 30.6 µM; in experiment [10], over 100 µM; in experiment [11], 38.4 µM; in experiment [12] it was 31.3 µM. Further, the TGI in experiment [13] was 43.5 µM; in [14] it was 55.4 µM; in experiment [15] it was 42.8 µM; in experiment [16], 32.3 µM; in experiment [17] it was 33.6 µM; in experiment [18] it was 37.8 µM.

Source of the values: PubChem BioAssay (NCI).
